Test results reported in patent US9782424B2, “Synergistic combination comprising avermectins and a NSAID for tumor inhibition” (Ectin Research AB, priority 2011, dated 2017).

Columns and labels:
Assay type in all cases: cell-based, human
[1] = test system: prostatic cell line (LNCaP); assay: XTT-assay proliferation rate, prostatic cell line; conditions: for Proliferation rate compared to untreated control: LNCaP (Table 5)
Method: (§1) Commercially available human tumor cell lines were purchased from ATCC (ATCC/LGC-standards, Borás, Sweden). […] Briefly, ampoules of frozen cells were thawed by submerging into a 37° C. water bath for 45 s. […] With supernatant discarded, cell pellets were further resuspended with 5 ml complete medium into 25 cm^2 cell culture flasks (Cell+, Sarstedt, Nümbrecht, Germany). Tumor cells were cultured until sub-confluence and further sub-cultured with Trypsin (0.5%), EDTA (0.2%) solution (T4174, TE-10x, Sigma) in sterile sodium chloride. Culture media was changed two-three times a week. Culture flasks (Cell+, Sarstedt, Nümbrecht, Germany) and culture plates (Falcon/BD, Franklin Lakes, N.J., USA) were used for experimental set-ups. Cells were regularly monitored using an inverted microscope connected to a digital photo equipment (Axiovert 25 and Axiovision, Zeiss, Carl Zeiss AG, Germany) (FIG. 1). Described culture techniques and equipment have been used extensively in the laboratory
The proliferation rates of the different human tumor cell lines were studied using a method based on the conversion of a sodium salt (XTT-assay, Sigma) into a stable orange color that could be analyzed in a spectrophotometer. […] The color change was measured using a 96-well plate reader with software to calculate the absorbance at 450 nm (V-max/Softmax Pro, Molecular Devices, USA).
Increasing concentrations of substance ivermectin was added with an 8-channel pipette (Titertek, Kem-En-Tec, Taastrup, Denmark) together with sterile pipette tips (Molecular Bioproducts, San Diego, Calif., USA). Cell cultures including active substances were incubated for 24 hours (and 96 hours). Untreated wells including culture medium only served as untreated controls. The XTT-assay substrate was added and after gentle agitation using a micro plate shaker, absorbencies at 450 and 650 nm were measured. Levels from medium were subtracted and compared with control wells, using culture medium only.

[2] = test system: urinary bladder cells (UM-UC-3); assay: Morphology of cultured tumor cells, UM-UC-3; conditions: ivermectin 100 μM, 24 hours (FIG. 6)
Method: Commercially available human tumor cell lines were purchased from ATCC (ATCC/LGC-standards, Borás, Sweden). Cell lines from urinary bladder (UM-UC-3, #CRL-1749), colorectal carcinoma (Colo205, #CCL-222 and HT29, #HTB-38), prostate carcinoma (LNCaP, #CRL-1740) and breast carcinoma (ZR-75-1, #CRL-1500) were purchased and stored in liquid nitrogen. Cells were cultured in Roswell Park Memorial Institute media (RPMI-1640) or minimum essential medium with Earl's salts (EMEM) supplemented with 10% Foetal calf serum (FCS, Sigma) and cultured using a 37° C. cell culture incubator (Forma Scientific, NinoLab, Kungsbacka, Sweden) with 5% CO2 humidified atmosphere. Tumor cell lines were handled aseptically using a laminar airflow (LAF) bench (Holten 2448, Ninolab, Sweden) and stored in a liquid nitrogen tank and were initiated in culture as previously described (Falk P. Experimental models of the peritoneal environment: Effects of TGF-beta and Hyaluronan. Göteborg: University of Gothenburg; 2008). Briefly, ampoules of frozen cells were thawed by submerging into a 37° C. water bath for 45 s. Cells were resuspended in 10 ml of preheated RPMI-1640 with 10% FCS and centrifuged in 260 g for 10 min. […] Cells were regularly monitored using an inverted microscope connected to a digital photo equipment (Axiovert 25 and Axiovision, Zeiss, Carl Zeiss AG, Germany) (FIG. 1). […]

[3] = test system: colorectal cells (Colo205); assay: Morphology of cultured tumor cells, Colo205
Method: as §1
The effect of Ivermectin, selamectin, abamectin alone, or in combination with ketoconazole, albendazole, ibuprofen, diclofenac and celecoxib on the morphology of cultured human tumor cells was studied. The effect of ivermectin in the presence of increasing concentration of ivermectin was also investigated. Cells were grown into sub-confluence and then sub-cultured into 12 and 24 well plates (Sarstedt, Falcon/BD) for morphology studies, or in 96 well plates (Sarstedt, Falcon/BD) for proliferation studies.

[4] = test system: colorectal cell line HT29; assay: Morphology of cultured tumor cells, HT29
Method: as §1
The effect of Ivermectin, selamectin, abamectin alone, or in combination with ketoconazole, albendazole, ibuprofen, diclofenac and celecoxib on the morphology of cultured human tumor cells was studied. The effect of ivermectin in the presence of increasing concentration of ivermectin was also investigated. […]

[5] = ivermectin 10e-4 to 10e-10 mol/L (FIG. 2)

## 22,23-dihydroavermectin B1a+22,23-dihydroavermectin B1b [ivermectin]
[1]; IVM 1 μmol/L alone
  Proliferation rate compared to untreated control: 95.4 ± 0.6%
[1]; IVM 10 μmol/L alone
  Proliferation rate compared to untreated control: 106.4±2.2%
[1]; IVM 10 μmol/L alone, listed as IVM
  Proliferation rate compared to untreated control: 106.4 ± 2.2%
[1]; IVM 100 μmol/L alone
  Proliferation rate compared to untreated control: 45.7 ± 2.2%
[1]; LNCaP, ivermectin 10e-9 mol/L
  Proliferation rate in per cent compared to untreated medium control: 91 ± 4%
[1]; LNCaP, ivermectin 10e-8 mol/L
  Proliferation rate in per cent compared to untreated medium control: 93 ± 5%
[1]; LNCaP, ivermectin 10e-7 mol/L
  Proliferation rate in per cent compared to untreated medium control: 94 ± 5%
[1]; LNCaP, ivermectin 10e-6 mol/L
  Proliferation rate in per cent compared to untreated medium control: 99 ± 4%
[1]; LNCaP, ivermectin 100 μM alone or in combination
  Effect on proliferation rate compared to untreated control: reduced the proliferation rate
[1]; LNCaP, ivermectin 10e-4 mol/L
  Proliferation rate in per cent compared to untreated medium control: 8±1%
[2]
  Effect on morphology: affected
[3]; ivermectin
  Effect on morphology: affected cell structure
[3]; ivermectin 10 μM
  Effect on morphology: no effect
[3]; ivermectin 10 μM alone, albendazole 20 and 40 μM alone (FIG. 11)
  Decreased growth of cells, substances tested alone: not seen
[3]; [5]
  Morphological effects over the concentration series: affected even at 10e-6 mol/L
[4]; ivermectin 100 μM
  Effect on morphology: affected
[4]; [5]
  Morphological effects over the concentration series: not morphologically affected even at the highest concentration
